According to US12174461B2, “Sustained release of oleic acid from contact lenses” (CooperVision International Limited, priority 2022, dated 2024):

What was measured:
[1] = Amount of DOPG loaded in stenfilcon A lens, by IPA extraction and LCMS; type: physicochemical; details: about 90 minutes
Description: 1,2-Dioleoyl-sn-glycero-3-phospho-rac-(1-glycerol) sodium salt (DOPG) from Sigma-Aldrich was dissolved into a 50% by volume ethanol (EtOH) 50% by volume deionized water solution and sonicated until the DOPG was fully dissolved to provide DOPG loading solutions ranging in concentration from 1 mg/ml to 10 mg/ml.
Silicone hydrogel contact lenses were prepared by curing the formulation for stenfilcon A in polypropylene contact lens molds. The cured stenfilcon A was removed from the molds, and each lens was extracted in EtOH to remove unreacted monomer. The lenses were then placed in the DOPG loading solutions for about 90 minutes and then hydrated in several exchanges of DI water. The lenses were packaged in plastic blisters with about 1.2 ml of a packaging solution comprising phosphate buffered saline (PBS) and autoclaved.
The amount of DOPG in each lens was determined by extracting the lens with isopropanol (IPA) and measuring DOPG in the extract by LCMS. Briefly, each lens was removed from its blister pack, lightly blotted to remove excess packaging solution, and placed in a 20 mL glass vial containing 10 mL 100% IPA. The vials were placed on a bench top shaker at 300 rpm overnight (˜16 hours) at room temperature. For stenfilcon A, a single […] extraction step is sufficient to extract substantially all the DOPG from the lense. Silicone hydrogel lens materials that are more hydrophobic may require a second overnight extraction in order to extract all the DOPG, in which case the IPA from the first extraction step is removed and replaced with 3 mL fresh IPA and shaken overnight at 300 rpm at room temperature. The amount of DOPG in the IPA extract from each lens is determined by LCMS compared to a DOPG standard solution.

[2] = molecular target: T1, recombinant human PLA2G2A (sPLA2-IIA) (Homo sapiens, UniProt P14555); assay: sPLA2 digestion assay: oleic acid release from stenfilcon A lenses loaded with phospholipid, in ATF with and without sPLA2 (LCMS); type: biochemical; details: 35±2° C., 4 hours; for Oleic acid peak area in ATF (without sPLA2): 4 mm piece of phospholipid-loaded stenfilcon A lens in 100 μL ATF; for Ratio of OA peak area in ATF with and without sPLA2: stenfilcon A lens pieces, 50 ppm sPLA2
T1 construct: purchased Creative BioMart PLA2G2A-669H
T1 sequence (P14555 21-144): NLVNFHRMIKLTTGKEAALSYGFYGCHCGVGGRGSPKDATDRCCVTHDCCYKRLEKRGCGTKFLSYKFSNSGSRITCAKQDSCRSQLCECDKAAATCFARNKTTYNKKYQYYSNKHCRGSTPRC
Description: The phospholipids shown in Table 1 were obtain from Avanti Polar Lipids. 3 mg/ml loading solutions of the phospholipids shown in Table 1 were prepared by adding 2.4 mL ethanol to 9 mg of phospholipid, sonicating (up to 15 minutes) then adding 0.6 mL DI water and sonicating again (up to 15 minutes) to dissolve the phospholipid.
Hydrated contact lenses made from stenfilcon A were washed three times in 3 mL purified water for 30 minutes each time. Each washed lens was placed in 3 mL of a phospholipid loading solution and incubated at room temperature with gentle shaking at 75 rpm for 3 hours. The loaded lenses were then rinsed and hydrated in several exchanges of DI water. The lenses were packaged in a buffered saline contact lens packaging solution and autoclaved.
An artificial tear fluid (ATF) was prepared by adding the first three ingredients listed in Table 2 to a clean class vial and then adding 30 mL of the fourth ingredient.
After autoclave each lens was removed from its package and place in a 6 mL glass vial containing 5 mL of the ATF at room temperature on a shaker at 125 rpm overnight to elute any free oleic acid that may be present in the lens.
Each lens was rinsed in a 6 ml glass vial containing a fresh aliquot of 5 mL ATF for 30 minutes prior to running the digestion assay.
A 50 ppm solution of sPLA2 was prepared in ATF by adding 200 μl ATF to a tube containing 10 μg recombinant human PLA2G2A (Creative BioMart, Cat. No. PLA2G2A-669H). The solution is referred to as ATF+sPLA2. Two 4 mm pieces were cut from each lens. One piece of each lens was placed in a tube with 100 μL ATF and the other piece was placed in a tube containing 100 μL ATF+sPLA2. The tubes were incubated at 35±2° C. for 4 hours with no shaking.
50 μl of the release media from each lens at T=4 hr was transferred to HPLC vials and 500 μl isopropanol (IPA) was added and mixed well. T=0 hr HPLC vials were also prepared (50 μl ATF+500 μl IPA). All vials were sonicated for 15 minutes and centrifuged. The supernatant was removed for LCMS injection.
The supernatants were injected on an LCMS instrument equipped with an ACQUITY UPLC BEH C18 […], 2.1 mm×15 cm column and running a mobile phase gradient from 65% A to 90% B at a flow rate of 0.35 mL/min with A=40% acetonitrile in water with 10 mM ammonium acetate and 0.2% (v/v) ammonium hydroxide, and B=10% acetonitrile in IPA with 10 mM ammonium acetate and 0.2% (v/v) ammonium hydroxide. The mass spec detector is run at negative electrospray mode. The peaks for oleic acid (OA) in the supernatants were measured (m/z trace=281.24). The ratio of OA peak area in ATF with and without sPLA2 was calculated.

[3] = test system: sPLA2 enzymes found in human tears; assay: Susceptibility of phospholipid in a silicone hydrogel contact lens body to digestion by tear sPLA2 enzymes; type: biochemical; details: phospholipid present in a silicone hydrogel contact lens body
Source text: To achieve these and other advantages, and in accordance with the purposes of the present invention, as embodied and broadly described herein, the present invention, in part relates to a hydrogel contact lens comprising a polymeric lens body loaded with 2-oleoyl phospholipid. The 2-oleoyl phospholipid is advantageously susceptible to digestion by secretory phospholipase 2-acylhydrolase (sPLA2) enzymes found in human tears, especially group IIA secretory phospholipase 2-acylhydrolase (sPLA2-IIA). The 2-oleoyl phospholipid present in the contact lens body is advantageously susceptible to digestion by sPLA2 enzymes found in human tears, especially sPLA2-IIA when the 2-oleoyl phospholipid is present in the polymeric lens body of a silicone hydrogel contact lens, such as a stenfilcon A contact lens. […] For the avoidance of doubt, while the determination of whether a 2-oleoyl phospholipid is susceptible to digestion by sPLA2 enzymes may be carried out by loading the 2-oleoyl phospholipid to a stenfilcon A lens, the contact lens of the invention, including contact lenses comprising 2-oleoyl phospholipid that have been determined to be susceptible to digestion by sPLA2 enzymes, need not be stenfilcon A lenses and may be silicone hydrogel lenses of any formulation. […]

SMILES	Oleic acid peak area in ATF (without sPLA2) ([2]; LCMS m/z 281.24)	Ratio of OA peak area in ATF with and without sPLA2 [2]	also measured
CCCCCCCC/C=C\CCCCCCCC(=O)OC[C@H](COP(=O)(O)OCC(O)CO)OC(=O)CCCCCCC/C=C\CCCCCCCC (mixture of isomers) [DOPG, 1,2-dioleoyl-sn-glycero-3-phospho-(1′-rac-glycerol)]	36	279	Average amount of DOPG/lens ([1]; DOPG loading concentration 1.0 mg/mL in 50% EtOH/water): 240 µg; Average amount of DOPG/lens ([1]; DOPG loading concentration 2.5 mg/mL in 50% EtOH/water): 495 µg; Average amount of DOPG/lens ([1]; DOPG loading concentration 5.0 mg/mL in 50% EtOH/water): 760 µg; Average amount of DOPG/lens ([1]; DOPG loading concentration 7.5 mg/ml in 50% EtOH/water): 895 µg; Average amount of DOPG/lens ([1]; DOPG loading concentration 10.0 mg/ml in 50% EtOH/water): 975 µg; Oleic acid peak area in ATF + sPLA2 ([2]; 4 mm piece of phospholipid-loaded stenfilcon A lens in 100 μL ATF + 50 ppm recombinant human PLA2G2A, LCMS m/z 281.24): 9958
CCCCCCCCCCCCCC(=O)OC[C@H](COP(=O)([O-])OCC[N+](C)(C)C)OC(=O)CCCCCCCCCCCCC [DMPC, 1,2-dimyristoyl-sn-glycero-3-phosphocholine]			Susceptibility to digestion by sPLA2 enzymes found in human tears [3]: not be susceptible to digestion by sPLA2 enzymes
CCCCCCCC/C=C\CCCCCCCC(=O)OC[C@H](COP(=O)([O-])OCC[N+](C)(C)C)OC(=O)CCCCCCC/C=C\CCCCCCCC [DOPC, 1,2-dioleoyl-sn-glycero-3-phosphocholine, reference compound]	102	1.2	
CCCCCCCC/C=C\CCCCCCCC(=O)OC[C@H](COP(=O)(O)OCCN)OC(=O)CCCCCCC/C=C\CCCCCCCC [DOPE, 1,2-dioleoyl-sn-glycero-3-phosphoethanolamine]	463	4.6	
CCCCCCCC/C=C\CCCCCCCC(=O)OC[C@H](COP(=O)(O)OC[C@H](N)C(=O)O)OC(=O)CCCCCCC/C=C\CCCCCCCC [DOPS, 1,2-dioleoyl-sn-glycero-3-phospho-L-serine]	88		
